Measured values taken from US20200017496A1 (priority 2017, published 2020).
Read-outs that look alike come from different tables or passages of the source.

Experiments:
Test in all cases: MIC of compounds alone and combined with antibacterials, broth microdilution (CLSI)
Type in all cases: cell-based
[1] = system: Morganella morganii (MMO) isolates; details: for MIC: Morganella morganii
In short: (§1)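 Inoculum 5·10^5 CFU/mL (final), log phase, ca-MHB; 16-20 h, 35° C, ambient air. MIC = lowest conc. with no visible growth; ATB MIC read at each compound level.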

[2] = system: Providencia rettgeri (PRE) isolates
In short: as §1

[3] = system: Serratia marcescens (SMA) isolates; details: for MIC: Serratia marcescens, read-out: MIC
In short: as §1

## C=CC1=C(C(=O)O)N2C(=O)[C@@H](NC(=O)/C(=N\OCC(=O)O)c3csc(N)n3)[C@H]2SC1 [FIX, Cefixime]
[1]; MMO UFR240, AF1 @ 8 μg/mL
  MIC ATB in combination: <=0.25 μg/mL
[1]; MMO UFR241, AF1 @ 4 μg/mL
  MIC ATB in combination: 2 µg/mL
[1]; MMO UFR241, AF1 @ 8 μg/mL
  MIC ATB in combination: <=0.25 μg/mL
[1]; MMO UFR242, AF1 @ 4 μg/mL
  MIC ATB in combination: 4 µg/mL
[1]; MMO UFR242, AF1 @ 8 μg/mL
  MIC ATB in combination: 2 µg/mL
[1]; MMO UFR243, AF1 @ 4 μg/mL
  MIC ATB in combination: 0.5 µg/mL
[1]; MMO UFR243, AF1 @ 8 μg/mL
  MIC ATB in combination: <=0.25 μg/mL
[1]; MMO UFR244, AF1 @ 4 μg/mL
  MIC ATB in combination: <=0.25 μg/mL
[1]; MMO UFR244, AF1 @ 8 μg/mL
  MIC ATB in combination: <=0.25 μg/mL
[1]; MMO UFR245, AF1 @ 4 μg/mL
  MIC ATB in combination: 2 µg/mL
[1]; MMO UFR245, AF1 @ 8 μg/mL
  MIC ATB in combination: <=0.25 μg/mL
[1]; MMO UFR246, AF1 @ 4 μg/mL
  MIC ATB in combination: 2 µg/mL
[1]; MMO UFR246, AF1 @ 8 μg/mL
  MIC ATB in combination: 1 µg/mL
[1]; MMO UFR247, AF1 @ 4 μg/mL
  MIC ATB in combination: 0.5 µg/mL
[1]; MMO UFR247, AF1 @ 8 μg/mL
  MIC ATB in combination: 0.25 µg/mL
[1]; strain MMO 200321 (TEM-1, CTX-M-15, OXA-1), ATB alone
  MIC: > 128 µg/mL
[1]; strain MMO 200321 (TEM-1, CTX-M-15, OXA-1), CLA @ 4 μg/ml+ ATB, read-out: MIC
  MIC: 32 µg/mL
[1]; strain MMO UFR144 (TEM-1, CTX-M-15), ATB alone
  MIC: > 128 µg/mL
[1]; strain MMO UFR144 (TEM-1, CTX-M-15), CLA @ 4 μg/ml+ ATB, read-out: MIC
  MIC: 32 µg/mL
[1]; strain MMO UFR240 (CTX-M-9), ATB alone, read-out: MIC
  MIC: 1 µg/mL
[1]; strain MMO UFR240 (CTX-M-9), CLA @ 4 μg/ml+ ATB, read-out: MIC
  MIC: 8 µg/mL
[1]; strain MMO UFR241 (TEM-1, CTX-M-15), ATB alone
  MIC: > 128 µg/mL
[1]; strain MMO UFR241 (TEM-1, CTX-M-15), CLA @ 4 μg/ml+ ATB, read-out: MIC
  MIC: 32 µg/mL
[1]; strain MMO UFR242 (TEM-52), ATB alone, read-out: MIC
  MIC: 1020 µg/mL
[1]; strain MMO UFR242 (TEM-52), CLA @ 4 μg/ml+ ATB, read-out: MIC
  MIC: 64 µg/mL
[1]; strain MMO UFR243 (DHA-1), ATB alone, read-out: MIC
  MIC: 8 µg/mL
[1]; strain MMO UFR243 (DHA-1), CLA @ 4 μg/ml+ ATB, read-out: MIC
  MIC: 32 µg/mL
[1]; strain MMO UFR244 (DHA-1), ATB alone, read-out: MIC
  MIC: 4 µg/mL
[1]; strain MMO UFR244 (DHA-1), CLA @ 4 μg/ml+ ATB, read-out: MIC
  MIC: 8 µg/mL
[1]; strain MMO UFR245 (DHA-1), ATB alone, read-out: MIC
  MIC: 32 µg/mL
[1]; strain MMO UFR245 (DHA-1), CLA @ 4 μg/ml+ ATB, read-out: MIC
  MIC: 64 µg/mL
[1]; strain MMO UFR246 (DHA-1), ATB alone, read-out: MIC
  MIC: 32 µg/mL
[1]; strain MMO UFR246 (DHA-1), CLA @ 4 μg/ml+ ATB, read-out: MIC
  MIC: 64 µg/mL
[1]; strain MMO UFR247 (DHA-1), ATB alone, read-out: MIC
  MIC: 16 µg/mL
[1]; strain MMO UFR247 (DHA-1), CLA @ 4 μg/ml+ ATB, read-out: MIC
  MIC: 32 µg/mL
[2]; ATB combined with CLA @ 4 μg/ml, strain PRE UFR236 (TEM-1, OXA-48)
  MIC: 32 µg/mL
[2]; PRE UFR99, AF1 @ 4 μg/mL
  MIC ATB in combination: >128 µg/mL
[2]; PRE UFR99, AF1 @ 8 μg/mL
  MIC ATB in combination: >128 µg/mL
[2]; Providencia rettgeri, strain PRE UFR99 (OXA-1, OXA-181), ATB alone
  MIC: > 128 µg/mL
[2]; Providencia rettgeri, strain PRE UFR99 (OXA-1, OXA-181), CLA @ 4 μg/ml+ ATB
  MIC: > 128 µg/mL
[2]; Providencia rettgeri, ATB alone, strain PRE UFR236 (TEM-1, OXA-48), read-out: MIC
  MIC: 32 µg/mL
[2]; strain PRE UFR236, antibacterial combined with AF1 @ 4 μg/mL
  MIC ATB in combination: 1 µg/mL
[2]; strain PRE UFR236, antibacterial combined with AF1 @ 8 μg/mL
  MIC ATB in combination: 0.5 µg/mL
[3]; SMA UFR30, AF1 @ 4 μg/mL
  MIC ATB in combination: <=0.25 μg/mL
[3]; SMA UFR30, AF1 @ 8 μg/mL
  MIC ATB in combination: <=0.25 μg/mL
[3]; SMA UFR134, AF1 @ 4 μg/mL
  MIC ATB in combination: 1 µg/mL
[3]; SMA UFR134, AF1 @ 8 μg/mL
  MIC ATB in combination: 1 µg/mL
[3]; SMA UFR135, AF1 @ 4 μg/mL
  MIC ATB in combination: 2 µg/mL
[3]; SMA UFR135, AF1 @ 8 μg/mL
  MIC ATB in combination: 2 µg/mL
[3]; SMA UFR136, AF1 @ 4 μg/mL
  MIC ATB in combination: 4 µg/mL
[3]; SMA UFR136, AF1 @ 8 μg/mL
  MIC ATB in combination: 2 µg/mL
[3]; SMA UFR137, AF1 @ 4 μg/mL
  MIC ATB in combination: <=0.25 μg/mL
[3]; SMA UFR137, AF1 @ 8 μg/mL
  MIC ATB in combination: <=0.25 μg/mL
[3]; SMA UFR138, AF1 @ 4 μg/mL
  MIC ATB in combination: <=0.25 μg/mL
[3]; SMA UFR138, AF1 @ 8 μg/mL
  MIC ATB in combination: <=0.25 μg/mL
[3]; SMA UFR139, AF1 @ 4 μg/mL
  MIC ATB in combination: 0.5 µg/mL
[3]; SMA UFR139, AF1 @ 8 μg/mL
  MIC ATB in combination: <=0.25 μg/mL
[3]; SMA UFR141, AF1 @ 4 μg/mL
  MIC ATB in combination: 0.5 µg/mL
[3]; SMA UFR141, AF1 @ 8 μg/mL
  MIC ATB in combination: 0.5 µg/mL
[3]; SMA UFR142, AF1 @ 4 μg/mL
  MIC ATB in combination: 2 µg/mL
[3]; SMA UFR142, AF1 @ 8 μg/mL
  MIC ATB in combination: 1 µg/mL
[3]; SMA UFR143, AF1 @ 4 μg/mL
  MIC ATB in combination: 0.25 µg/mL
[3]; SMA UFR143, AF1 @ 8 μg/mL
  MIC ATB in combination: 0.25 µg/mL
[3]; SMA UFR239, AF1 @ 4 μg/mL
  MIC ATB in combination: 0.5 µg/mL
[3]; SMA UFR239, AF1 @ 8 μg/mL
  MIC ATB in combination: 0.5 µg/mL
[3]; ATB alone, strain SMA UFR238 (OXA-48)
  MIC: 1 µg/mL
[3]; ATB combined with CLA @ 4 μg/ml, strain SMA UFR238 (OXA-48)
  MIC: 2 µg/mL
[3]; SMA UFR143, alone
  MIC: 512 µg/mL
[3]; strain SMA UFR30 (OXA-405), ATB alone
  MIC: 1 µg/mL
[3]; strain SMA UFR30 (OXA-405), CLA @ 4 μg/ml+ ATB
  MIC: 1 µg/mL
[3]; strain SMA UFR134 (TEM-1, BES-1), ATB alone
  MIC: > 128 µg/mL
[3]; strain SMA UFR134 (TEM-1, BES-1), CLA @ 4 μg/ml+ ATB
  MIC: 32 µg/mL
[3]; strain SMA UFR135 (TEM-1, KPC-2), ATB alone
  MIC: 64 µg/mL
[3]; strain SMA UFR135 (TEM-1, KPC-2), CLA @ 4 μg/ml+ ATB
  MIC: 32 µg/mL
[3]; strain SMA UFR136 (TEM-1, SHV-12, KPC-2), ATB alone
  MIC: > 128 µg/mL
[3]; strain SMA UFR136 (TEM-1, SHV-12, KPC-2), CLA @ 4 μg/ml+ ATB
  MIC: > 128 µg/mL
[3]; strain SMA UFR137 (SME-1), ATB alone
  MIC: 0.5 µg/mL
[3]; strain SMA UFR137 (SME-1), CLA @ 4 μg/ml+ ATB
  MIC: 1 µg/mL
[3]; strain SMA UFR138 (SME-1), ATB alone
  MIC: 0.5 µg/mL
[3]; strain SMA UFR138 (SME-1), CLA @ 4 μg/ml+ ATB
  MIC: 0.5 µg/mL
[3]; strain SMA UFR139 (SME-2), ATB alone
  MIC: 1 µg/mL
[3]; strain SMA UFR139 (SME-2), CLA @ 4 μg/ml+ ATB
  MIC: 2 µg/mL
[3]; strain SMA UFR141 (OXA-48), ATB alone
  MIC: 2 µg/mL
[3]; strain SMA UFR141 (OXA-48), CLA @ 4 μg/ml+ ATB
  MIC: 0.5 µg/mL
[3]; strain SMA UFR142 (OXA-48), ATB alone
  MIC: 2 µg/mL
[3]; strain SMA UFR142 (OXA-48), CLA @ 4 μg/ml+ ATB
  MIC: 2 µg/mL
[3]; strain SMA UFR143 (CTX-M-15, OXA-1, OXA-48), ATB alone
  MIC: 512 µg/mL
[3]; strain SMA UFR143 (CTX-M-15, OXA-1, OXA-48), CLA @ 4 μg/ml+ ATB
  MIC: 64 µg/mL
[3]; strain SMA UFR239 (ESAC), ATB alone
  MIC: 2 µg/mL
[3]; strain SMA UFR239 (ESAC), CLA @ 4 μg/ml+ ATB
  MIC: 2 µg/mL
[3]; strain SMA UFR238, antibacterial combined with AF1 @ 4 μg/mL
  MIC ATB in combination: 1 µg/mL
[3]; strain SMA UFR238, antibacterial combined with AF1 @ 8 μg/mL
  MIC ATB in combination: 0.5 µg/mL
